# According to ChEMBL document CHEMBL1201862, “PubChem BioAssay data set” (2004):
# The source made the active and inactive calls.
# Legend:
# Prothrombin = Prothrombin (Homo sapiens, UniProt P00734); test: Thrombin 1536 HTS Dose Response Confirmation. [Related pubchem assays: 1046 (Thrombin 1536 HTS; hits were confirmed in this assay)]; format: functional
# Leucine aminopeptidase = biological target: T1, Leucine aminopeptidase (Plasmodium falciparum 3D7, UniProt Q8IL11); test: P. falciparum M17LAP inhibitors, primary screen, biochemical, fluorogenic H-Leu-NHMec substrate, 1536-well (AID 1619); format: functional
# T1 sequence (Q8IL11 whole entry): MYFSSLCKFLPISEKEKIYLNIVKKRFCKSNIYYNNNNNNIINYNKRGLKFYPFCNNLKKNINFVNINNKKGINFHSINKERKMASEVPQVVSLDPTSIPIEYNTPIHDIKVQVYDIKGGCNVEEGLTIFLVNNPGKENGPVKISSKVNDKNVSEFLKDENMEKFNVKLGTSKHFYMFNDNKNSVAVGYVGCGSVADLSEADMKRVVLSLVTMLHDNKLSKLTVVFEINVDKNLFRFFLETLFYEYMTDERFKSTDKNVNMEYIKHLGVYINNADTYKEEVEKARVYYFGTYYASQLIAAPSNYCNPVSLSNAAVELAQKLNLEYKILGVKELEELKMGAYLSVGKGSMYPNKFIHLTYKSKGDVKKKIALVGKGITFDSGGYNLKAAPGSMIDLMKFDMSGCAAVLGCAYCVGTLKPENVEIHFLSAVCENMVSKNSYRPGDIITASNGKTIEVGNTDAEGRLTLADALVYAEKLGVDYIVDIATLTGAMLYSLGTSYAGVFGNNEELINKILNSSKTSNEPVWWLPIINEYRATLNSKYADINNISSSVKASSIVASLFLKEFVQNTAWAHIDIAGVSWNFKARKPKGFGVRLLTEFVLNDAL
# [1] = Shn3 3'UTR reporter inhibitors, dose response, cell-based, Clone20 osteoblasts, firefly luciferase, cherry-picked (AID 624132); format: functional;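 also: firefly luciferase luminescence from reporter carrying the Shn3 3'UTR in osteoblasts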
# [2] = HepG2 cell cytotoxicity, dose response, cytotoxicity control for Shn3 inhibitor project, CellTiter-Glo, cherry-picked (AID 624134); format: functional, cell-based
# [3] = control 3'UTR Renilla luciferase suppression, dose response, counter-screen for Shn3 inhibitor project, cell-based, Clone20-Shn3RL, cherry-picked (AID 624133); format: functional
# Protein Wnt-3a = Protein Wnt-3a (Mus musculus, UniProt P27467); test: Wnt3a-driven reporter signaling inhibition, dose response, selectivity assay for Gli-SUFU antagonist project, Wnt-LIGHT cells, luminescence (AID 651570); format: functional; conditions: read-out: IC50_Mean;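 also: Wnt-LIGHT reporter cells stimulated with conditioned medium from Wnt3a-producing cells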
# [4] = NIH-3T3 fibroblast cytotoxicity, dose response, cytotoxicity control, cell-based, fluorescence, Alamar Blue, secondary assay (AID 2327); format: functional;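 also: NIH-3T3 mouse fibroblasts cultured with fluconazole at 8 µg/mL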
# [5] = C. albicans growth with fluconazole, confirmation, fluorescence, retest (AID 2467); format: functional, cell-based
# Vero = Vero cell cytotoxicity, cytotoxicity control for flavivirus capping enzyme inhibitors (AID 588742); format: functional; conditions: Chlorocebus sabaeus
# [6] = biological target: T2, Polyadenylate-binding protein 1 (Homo sapiens, UniProt P11940); test: PABP1 MLLE–PAM2 interaction inhibitors, dose response, miRNA deadenylation inhibitor project, biochemical, fluorescence polarization, Cy5-PAM2 peptide, secondary (AID 602260); format: functional; conditions: read-out: IC50_Mean
# [7] = biological target: T2, Polyadenylate-binding protein 1; test: PABP1 MLLE–PAM2 binding inhibitor potency, dose response, biochemical, fluorescence polarization, FITC-PAM2 peptide (AID 602259); format: functional; conditions: read-out: IC50_Mean
# [8] = biological target: T3, Microphthalmia-associated transcription factor (Homo sapiens, UniProt O75030); test: TRPM1 promoter luciferase signal decrease, dose response, MITF inhibitor project, cell-based, SK-MEL-5, cherry-picked, set 3 (AID 493073); format: functional
# T3 sequence (O75030 whole entry): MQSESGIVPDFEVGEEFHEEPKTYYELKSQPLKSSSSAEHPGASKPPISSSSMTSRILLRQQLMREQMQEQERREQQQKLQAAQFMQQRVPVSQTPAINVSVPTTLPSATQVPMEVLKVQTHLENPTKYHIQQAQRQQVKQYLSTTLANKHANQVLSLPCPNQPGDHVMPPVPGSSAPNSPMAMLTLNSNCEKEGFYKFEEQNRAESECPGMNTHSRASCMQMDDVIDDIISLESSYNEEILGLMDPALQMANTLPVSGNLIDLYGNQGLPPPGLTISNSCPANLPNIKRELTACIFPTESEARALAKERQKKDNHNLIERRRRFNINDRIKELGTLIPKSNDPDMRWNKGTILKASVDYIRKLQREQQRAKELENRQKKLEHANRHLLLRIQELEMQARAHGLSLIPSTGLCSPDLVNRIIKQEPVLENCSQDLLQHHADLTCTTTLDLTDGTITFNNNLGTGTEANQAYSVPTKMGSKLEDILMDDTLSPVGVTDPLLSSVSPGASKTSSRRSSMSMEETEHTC
# Genome polyprotein = Genome polyprotein (dengue virus type 2, UniProt P29990); test: Dengue-2 NS5 methyltransferase inhibitors, primary screen, biochemical, confirmation dose response (AID 588689); format: functional
# HeLa = test: HeLa cell cytotoxicity, dose response, cytotoxicity control for MITF activator project, CellTiter-Glo luminescence, cherry-pick samples (AID 540259); format: functional, cell-based; conditions: Homo sapiens
# [9] = biological target: Induced myeloid leukemia cell differentiation protein Mcl-1 (Homo sapiens, UniProt Q07820); format: functional
# [10] = biological target: DNA dC->dU-editing enzyme APOBEC-3G (Homo sapiens, UniProt Q9HC16); test: Dose Response confirmation of small molecule APOBEC3G DNA Deaminase Inhibitors via a fluorescence-based single-stranded DNA deaminase assay. [Related pubchem assays (depositor defined):AID493012, AID493028]; format: functional
# [11] = inhibitors of intracellular T. cruzi replication, confirmation, NIH3T3 host cells, beta-gal luminescence (AID 2044); format: functional, cell-based;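 also: intracellular parasites grown in NIH/3T3 mouse fibroblasts as host cells; luminescent beta-galactosidase reporter signal from transgenic T. cruzi replicating inside host cells; inhibitors lower the luminescence signal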
# [12] = cytotoxicity toward NIH3T3 fibroblasts, dose response, counter-screen, cell-based, ATP luminescence, mouse fibroblasts (AID 2010); format: functional;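 also: cells exposed to compound for about 90 hours before reading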
# T2 sequence (P11940 whole entry): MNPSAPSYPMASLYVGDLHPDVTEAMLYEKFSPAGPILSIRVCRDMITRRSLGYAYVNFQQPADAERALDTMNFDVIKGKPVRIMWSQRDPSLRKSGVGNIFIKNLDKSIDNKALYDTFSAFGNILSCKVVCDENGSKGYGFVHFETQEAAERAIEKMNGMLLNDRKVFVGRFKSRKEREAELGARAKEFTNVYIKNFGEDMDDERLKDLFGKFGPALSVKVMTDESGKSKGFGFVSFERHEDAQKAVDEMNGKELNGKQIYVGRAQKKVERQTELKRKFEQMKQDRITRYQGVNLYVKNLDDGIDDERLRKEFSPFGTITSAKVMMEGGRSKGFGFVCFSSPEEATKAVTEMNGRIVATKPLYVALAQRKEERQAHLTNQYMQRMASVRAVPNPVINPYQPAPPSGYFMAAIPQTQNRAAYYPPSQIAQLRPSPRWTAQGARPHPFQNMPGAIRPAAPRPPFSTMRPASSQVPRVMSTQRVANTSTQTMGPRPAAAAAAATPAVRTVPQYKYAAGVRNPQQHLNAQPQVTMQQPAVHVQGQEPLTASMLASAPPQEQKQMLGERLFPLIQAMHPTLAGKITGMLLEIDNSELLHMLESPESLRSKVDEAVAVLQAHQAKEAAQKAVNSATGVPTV
# Chain of Genome polyprotein (P29990 2492-3391 limits assumed): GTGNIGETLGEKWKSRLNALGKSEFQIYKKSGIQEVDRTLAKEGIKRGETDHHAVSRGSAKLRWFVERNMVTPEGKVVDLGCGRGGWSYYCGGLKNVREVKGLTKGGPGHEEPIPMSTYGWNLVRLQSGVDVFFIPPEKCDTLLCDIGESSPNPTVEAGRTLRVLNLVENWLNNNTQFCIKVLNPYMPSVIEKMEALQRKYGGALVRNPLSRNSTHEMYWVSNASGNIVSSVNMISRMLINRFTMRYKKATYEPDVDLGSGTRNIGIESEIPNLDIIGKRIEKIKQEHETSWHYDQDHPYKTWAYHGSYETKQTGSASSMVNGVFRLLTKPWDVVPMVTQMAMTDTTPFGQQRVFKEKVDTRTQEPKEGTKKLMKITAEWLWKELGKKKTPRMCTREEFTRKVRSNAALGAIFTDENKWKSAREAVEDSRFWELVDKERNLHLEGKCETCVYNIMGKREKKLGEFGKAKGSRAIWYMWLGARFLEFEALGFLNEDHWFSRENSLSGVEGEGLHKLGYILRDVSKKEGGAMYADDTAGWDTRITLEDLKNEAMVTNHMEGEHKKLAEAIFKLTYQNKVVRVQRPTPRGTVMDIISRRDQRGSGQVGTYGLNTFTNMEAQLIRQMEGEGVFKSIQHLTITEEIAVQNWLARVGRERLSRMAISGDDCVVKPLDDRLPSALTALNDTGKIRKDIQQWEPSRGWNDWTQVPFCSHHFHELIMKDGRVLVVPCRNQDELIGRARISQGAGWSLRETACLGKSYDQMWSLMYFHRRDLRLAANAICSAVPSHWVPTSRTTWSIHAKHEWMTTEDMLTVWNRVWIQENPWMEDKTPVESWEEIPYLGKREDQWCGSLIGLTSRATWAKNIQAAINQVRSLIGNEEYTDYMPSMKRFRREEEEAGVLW
# Chain of Induced myeloid leukemia cell differentiation protein Mcl-1 (Q07820 whole entry): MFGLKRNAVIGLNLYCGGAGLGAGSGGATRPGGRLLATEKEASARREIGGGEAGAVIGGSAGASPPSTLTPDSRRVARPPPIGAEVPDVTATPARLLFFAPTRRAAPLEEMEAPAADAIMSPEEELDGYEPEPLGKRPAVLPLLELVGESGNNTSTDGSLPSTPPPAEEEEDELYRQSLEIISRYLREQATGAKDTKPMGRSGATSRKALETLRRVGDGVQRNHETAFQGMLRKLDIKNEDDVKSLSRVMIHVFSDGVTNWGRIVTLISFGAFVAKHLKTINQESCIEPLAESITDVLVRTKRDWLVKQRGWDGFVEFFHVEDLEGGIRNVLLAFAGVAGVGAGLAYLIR
# Chain of DNA dC->dU-editing enzyme APOBEC-3G (Q9HC16 whole entry): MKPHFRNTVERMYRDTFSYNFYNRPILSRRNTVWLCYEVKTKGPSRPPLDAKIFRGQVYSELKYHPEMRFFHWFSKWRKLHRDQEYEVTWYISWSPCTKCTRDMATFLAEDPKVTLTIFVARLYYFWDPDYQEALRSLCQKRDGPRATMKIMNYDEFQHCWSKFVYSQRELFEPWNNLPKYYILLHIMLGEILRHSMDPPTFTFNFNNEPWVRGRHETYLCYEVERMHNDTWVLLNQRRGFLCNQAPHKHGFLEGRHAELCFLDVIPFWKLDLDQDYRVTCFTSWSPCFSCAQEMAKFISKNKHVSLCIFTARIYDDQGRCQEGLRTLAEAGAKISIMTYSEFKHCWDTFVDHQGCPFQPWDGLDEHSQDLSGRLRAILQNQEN
# Chain of Protein Wnt-3a (P27467 whole entry): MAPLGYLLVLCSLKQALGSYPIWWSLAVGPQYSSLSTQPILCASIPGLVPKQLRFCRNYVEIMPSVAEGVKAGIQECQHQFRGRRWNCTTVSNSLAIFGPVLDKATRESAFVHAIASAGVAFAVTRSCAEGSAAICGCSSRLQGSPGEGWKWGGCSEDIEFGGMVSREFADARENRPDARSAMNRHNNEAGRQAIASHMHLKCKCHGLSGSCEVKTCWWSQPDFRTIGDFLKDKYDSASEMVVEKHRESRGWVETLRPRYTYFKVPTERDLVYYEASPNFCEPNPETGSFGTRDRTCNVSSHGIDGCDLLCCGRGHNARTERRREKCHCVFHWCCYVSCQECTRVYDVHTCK
smiles,measurement,setting,value
Cc1ccccc1NC(=O)c1ccc(NC(=O)C2CC(=O)OC23CCCCC3)cc1 (stereo not given),IC50,Prothrombin,> 50 µM (not active)
CC1=NNC(=O)C1CCC(=O)N/N=C(/C)c1ccc([N+](=O)[O-])cc1 (stereo not given),IC50,Leucine aminopeptidase,80.6 µM (active)
CCCN1CCC(N2CCCC(C(=O)O)C2)CC1 (stereo not given),IC50,Prothrombin,> 50 µM (not active)
CCN(CC)S(=O)(=O)c1ccc(S(=O)(=O)N2CCCC(C(=O)NC3CC3)C2)cc1 (stereo not given),AC50,[1],2.9 µM (active)
same,AC50,[2],52 µM (active)
same,AC50,[3],9.46 µM (active)
same,IC50,Protein Wnt-3a,0.444 µM (active)
O=C1N=C(Nc2ccccc2Cl)S/C1=C\c1cccc([N+](=O)[O-])c1O,EC50,[4],> 150 µM (inactive)
same,EC50,[5],7.16 µM (active)
same,CC50,Vero,> 40 µM (active)
COc1ccc(NC(=S)NC(=O)c2ccccc2)cn1,IC50,[6],> 66 µM (inactive)
same,IC50,[7],> 66 µM (inactive)
Cc1ccc2nc3cc([N+](=O)[O-])cc([N+](=O)[O-])c3cc2c1,AC50,[8],8.46 µM (active)
same,CC50,Vero,6.28 µM (active)
same,IC50,Genome polyprotein,9.85 µM (active)
Cc1c(C(=O)Nc2ccccc2F)cnn1-c1ccccc1,AC50,HeLa,80.9 µM (active)
Cc1ccc(-c2nn(-c3ccccc3)cc2/C=C2\SC(=S)N(CC(=O)O)C2=O)cc1,IC50,[9],4.14 µM (active)
same,IC50,Genome polyprotein,36.5 µM (active)
CCOC(=O)c1sc(=S)n(C)c1NC(=O)c1ccc(OC)cc1,IC50,[10],41.1 µM (active)
O=C(Nc1ccc(Cl)c(Cl)c1)OCc1cccnc1,EC50,[11],2.5 µM (active)
same,EC50,[12],> 30 µM (not active)
same,AC50,HeLa,39.5 µM (active)
NC(=O)N/N=C/C=C/c1ccccc1 [PHENYLETHENYLSEMICARBAZONE],IC50,Prothrombin,> 50 µM (not active)
CCOC(=O)N1CCN(C(=O)c2oc3ccc(S(=O)(=O)N4CCOCC4)cc3c2C)CC1,IC50,Prothrombin,> 50 µM (not active)
Cc1ccc(NC(=O)c2ccc3ccccc3n2)cc1S(=O)(=O)N(C)C,AC50,HeLa,35.4 µM (active)
